Measured values reported in patent US20230092679A1, “MCL-1 INHIBITOR ANTIBODY-DRUG CONJUGATES AND METHODS OF USE” (NOVARTIS AG, priority 2019, published 2023).

What was measured:
Format in all cases: cell-based
sigm5 = assay: In vitro ADC activity, AML cell lines, CellTiter-Glo (Example 20); details: sigm5, 5 days
molm16 = assay: as above; details: molm16, 5 days
molm13 = assay: as above; details: molm13, 5 days
kasumi6 = assay: as above; details: kasumi6, 5 days
5339hx = assay: as above; details: 5 days
thp1 = assay: as above; details: thp1, 5 days
ociaml2 = assay: as above; details: ociaml2, 5 days
hl60 = assay: as above; details: hl60, 5 days
KMS-21 BM = assay: CellTiter-Glo proliferation assay, single agent and with venetoclax (Example 19); details: 5 days; for IC50: 120 h; for Amax: in %
Experimental: (§1) The CD48 MCL-1 antibody drug conjugates were tested against four endogenous cancer cell lines. KMS-21 BM (JCRB No. JCRB1185 cultured in RPMI-1640+10% FBS), KMS-20 (JCRB No. JCRB1196 cultured in RPMI-1640+10% FBS), KMS-27 (JCRB No. JCRB1188 cultured in RPMI-1640+10% FBS), and NCI-H929 (ATCC No. CRL-9068 cultured in RPMI-1640+10% FBS+0.05 mM 2-mercaptoethanol).
(§2) The ability of the CD48 MCL-1 antibody drug conjugates to inhibit cell proliferation and survival was assessed using the Promega CellTiter-Glo® proliferation assay. Cell lines were cultured in media that is optimal for their growth at 5% CO2, 37° C. in a tissue culture incubator. Prior to seeding for the proliferation assay, the cells were split at least 2 days before the assay to ensure optimal growth density. On the day of seeding, suspension cells were harvested. Cell viability and cell density were determined using a cell counter (Vi-Cell XR Cell Viability Analyzer, Beckman Coulter). […] Cells were seeded at a density of 1,000 cells per well in 45 μL of standard growth media. Plates were incubated at 5% CO2, 37° C. overnight in a tissue culture incubator. The next day, free MCL-1 payload (P1), targeting MCL-1 ADCs and non-targeting isotype ADCs were prepared at 10× in standard growth media. The prepared drug treatments were then added to the cells resulting in final concentrations of 0.0005-300 nM and a final volume of 50 μL per well. Each drug concentration was tested in quadruplets. Two conditions were evaluated for each compound. The compounds were evaluated as single agents and in combination with venetoclax. The venetoclax was dosed at either 5 nM or 50 nM final concentration. Plates were incubated at 5% CO2, 37° C. for 5 days in a tissue culture incubator, after which cell viability was assessed through the addition of 25 μL of CellTiter Glo® (Promega, cat #G7573), a reagent which lyses cells and measures total adenosine triphosphate (ATP) content. Plates were incubated at room temperature for 10 minutes to stabilize luminescent signals prior to reading using a luminescence reader (EnVision Multilabel Plate Reader, PerkinElmer). To evaluate the effect of the drug treatments, luminescent counts from wells containing untreated cells (100% viability) were used to normalize treated samples. A variable slope model was applied to fit a nonlinear regression curve to the data in GraphPad PRISM version 7.02 software. IC50 and Amax values were extrapolated from the resultant curves.

NCI-H929 = assay: as above; details: 5 days; for IC50: Homo sapiens, NCI-H929, 120 h; for Amax: in %
Experimental: as §1, §2

KMS-20 = assay: as above; details: 5 days; for IC50: KMS-20, 120 h; for Amax: in %
Experimental: as §1, §2

KMS-27 = assay: as above; details: 5 days; for IC50: KMS-27, 120 h; for Amax: in %
Experimental: as §1, §2

ocim1 = assay: In vitro ADC activity, AML cell lines, CellTiter-Glo (Example 20); details: ocim1, 5 days

## COc1ccccc1-c1nccc(COc2ccccc2C[C@@H](Oc2ncnc3sc(-c4ccc(F)cc4)c(-c4ccc(OCCN5CCN(C)CC5)c(Cl)c4C)c23)C(=O)O)n1 [P1, (2R)-2-[5-[3-chloro-2-methyl-4-[2-(4-methylpiperazin-1-yl)ethoxy]phenyl]-6-(4-fluorophenyl)thieno[2,3-d]pyrimidin-4-yl]oxy-3-[2-[[2-(2-methoxyphenyl)pyrimidin-4-yl]methoxy]phenyl]propanoic acid]
sigm5; Homo sapiens, SIG-M5, 120 h
  GI50: 118 nM
sigm5; in % (unit assumed)
  Amax: −21
molm16; 120 h
  GI50: 45 nM
molm16; in % (unit assumed)
  Amax: −76
molm13; Homo sapiens, MOLM-13, 120 h
  GI50: 2 nM
molm13; in % (unit assumed)
  Amax: −54
kasumi6; 120 h
  GI50: 4 nM
kasumi6; in % (unit assumed)
  Amax: −96
5339hx; 120 h
  GI50: 5 nM
5339hx; in % (unit assumed)
  Amax: −83
thp1; Homo sapiens, THP-1, 120 h
  GI50: 28 nM
thp1; in % (unit assumed)
  Amax: −72
ociaml2; Homo sapiens, OCI-AML2, 120 h
  GI50: 127 nM
ociaml2; in % (unit assumed)
  Amax: −50
hl60; Homo sapiens, HL-60, 120 h
  GI50: 87 nM
hl60; in % (unit assumed)
  Amax: −71
KMS-21 BM; + 5 nM Venetoclax
  IC50: 5.57 nM
  Amax: 100.8
KMS-21 BM; + 50 nM Venetoclax
  IC50: 5.23 nM
  Amax: 99.41
KMS-21 BM; single agent
  IC50: 5.73 nM
  Amax: 94.25
NCI-H929; NCI-H929, + 5 nM Venetoclax
  IC50: 8.69 nM
  Amax: 91.53
NCI-H929; NCI-H929, + 50 nM Venetoclax
  IC50: 8.29 nM
  Amax: 103.4
NCI-H929; NCI-H929, single agent
  IC50: 10.7 nM
  Amax: 90.09
KMS-20; KMS-20, + 5 nM Venetoclax
  IC50: 30.6 nM
  Amax: 75.53
KMS-20; KMS-20, + 50 nM Venetoclax
  IC50: 36.2 nM
  Amax: 82.77
KMS-20; KMS-20, single agent
  IC50: 34.7 nM
  Amax: 65.65
KMS-27; KMS-27, + 5 nM Venetoclax
  IC50: 20.1 nM
  Amax: 110.5
KMS-27; KMS-27, + 50 nM Venetoclax
  IC50: 12 nM
  Amax: 114.7
KMS-27; KMS-27, single agent
  IC50: 153 nM
ocim1; OCI-M1, 120 h
  GI50: > 10000 nM
ocim1; unit assumed
  Amax: 86%
